Where a SMILES comes first, the peptide text is derived from it.
Tests used:
[1] = target: Wnt-responsive promoter (TCF/LEF); experiment: Wnt-dependent luciferase reporter assay; assay type: cell-based, murine
Outline: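 Murine 3T3 fibroblasts carrying a TCF/LEF-driven luciferase reporter, stimulated with Wnt3a in the presence of increasing peptide concentrations or vehicle. Luminescence inhibition gave EC50 values in uM.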

[2] = % Viability non-Wnt responsive cells
[3] = target: T1, β-catenin (Homo sapiens, UniProt P35222); experiment: KD50 measurement using competitive fluorescence polarization (FP) with labelled TCF4; assay type: binding; conditions: fluorescence polarization, β-catenin; for Kd: read-out: β-Cat FP KD
T1 sequence (P35222 1-781): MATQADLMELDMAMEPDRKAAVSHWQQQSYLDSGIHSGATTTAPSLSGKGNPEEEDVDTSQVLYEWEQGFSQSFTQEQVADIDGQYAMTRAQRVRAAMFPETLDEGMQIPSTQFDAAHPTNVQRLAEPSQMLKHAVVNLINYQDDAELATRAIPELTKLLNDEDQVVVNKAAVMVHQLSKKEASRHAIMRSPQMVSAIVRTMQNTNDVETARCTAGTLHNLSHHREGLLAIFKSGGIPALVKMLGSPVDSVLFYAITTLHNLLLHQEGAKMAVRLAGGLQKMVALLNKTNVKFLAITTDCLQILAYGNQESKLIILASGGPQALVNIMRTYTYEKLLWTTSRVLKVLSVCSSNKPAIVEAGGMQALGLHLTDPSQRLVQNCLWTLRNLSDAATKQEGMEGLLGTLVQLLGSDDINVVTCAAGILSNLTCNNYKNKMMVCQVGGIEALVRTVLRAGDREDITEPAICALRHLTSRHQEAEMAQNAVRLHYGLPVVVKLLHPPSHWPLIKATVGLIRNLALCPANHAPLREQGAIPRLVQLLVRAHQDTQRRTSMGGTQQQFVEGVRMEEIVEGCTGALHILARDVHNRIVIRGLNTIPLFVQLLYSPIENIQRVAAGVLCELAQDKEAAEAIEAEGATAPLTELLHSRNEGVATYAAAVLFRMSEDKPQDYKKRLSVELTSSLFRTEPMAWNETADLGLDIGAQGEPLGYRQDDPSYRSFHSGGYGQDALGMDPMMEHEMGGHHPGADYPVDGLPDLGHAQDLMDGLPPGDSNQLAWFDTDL
Outline: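 5 nM labelled TCF4 was combined with 100 nM β-catenin at room temperature, then inhibitor was titrated in serial dilutions from 10 nM to 30 uM. Polarization was read at excitation 470 nm, emission 520 nm; displacement lowers the signal. Three independent experiments.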

Structure (SMILES) | EC50 [1] [µM] | viability [2] [%] | β-Cat FP Hill slope [3] | Kd [3] [µM]
CC[C@H](C)[C@H](NC(=O)[C@H](CC(C)C)NC(=O)[C@H](Cc1ccccc1)NC(=O)[C@H](Cc1c[nH]c2ccccc12)NC(=O)[C@H](C)N)C(=O)N[C@@H](CO)C(=O)N[C@@H](Cc1ccccc1)C(=O)N[C@@H](Cc1c[nH]c2ccccc12)C(=O)NCC(=O)O [compound 209] (H-AWFLISFWG-OH) | < 7.5 | 91 | 0.93 | 0.4 to 1
CC[C@H](C)[C@@H]1NC(=O)[C@H](CC(C)C)NC(=O)[C@H](Cc2ccccc2)NC(=O)[C@H](Cc2c[nH]c3ccccc23)NC(=O)[C@@H](NC(C)=O)CCCCNC(=O)CC[C@@H](C(=O)O)NC(=O)[C@H](Cc2c[nH]c3ccccc23)NC(=O)[C@H](Cc2ccccc2)NC(=O)[C@H](CO)NC1=O [compound 199] (HELM PEPTIDE1{[ac].K.W.F.L.I.S.F.W.E}$PEPTIDE1,PEPTIDE1,2:R3-10:R3$$$V2.0) | < 7.5 | 89.8 | 0.7 | 0.4 to 1
CC[C@H](C)[C@H](NC(=O)[C@H](CC(C)C)NC(=O)[C@H](Cc1ccccc1)NC(=O)[C@H](Cc1c[nH]c2ccccc12)NC(=O)[C@H](Cc1c[nH]c2ccccc12)NC(=O)[C@H](CCCNC(=N)N)NC(=O)[C@H](CO)NC(=O)[C@@H](N)CCSC)C(=O)N[C@@H](CO)C(=O)N[C@@H](Cc1ccccc1)C(=O)N[C@@H](Cc1c[nH]c2ccccc12)C(N)=O [compound 78] (H-MSRWWFLISFW-NH2) | > 30 | 101 |  | > 30
CC[C@H](C)[C@H](NC(=O)[C@H](CC(C)C)NC(=O)[C@H](Cc1ccccc1)NC(=O)[C@H](Cc1c[nH]c2ccccc12)NC(=O)[C@H](CCSC)NC(C)=O)C(=O)N[C@@H](CS)C(=O)N[C@@H](Cc1ccccc1)C(=O)N[C@@H](Cc1c[nH]c2ccccc12)C(=O)NCCCC(=O)O [compound 197] (HELM PEPTIDE1{[ac].M.W.F.L.I.C.F.W.[O=C(O)CCCN[*:1]]}$$$$V2.0) | < 7.5 | 89.8 | 1.52 | 0.4 to 1
CC[C@H](C)[C@H](NC(=O)[C@H](CC(C)C)NC(=O)[C@@H](NC(=O)[C@H](Cc1c[nH]c2ccccc12)NC(=O)[C@@H](N)CCCCN)[C@@H](C)CC)C(=O)N[C@@H](CO)C(=O)N[C@@H](Cc1ccccc1)C(=O)N[C@@H](Cc1c[nH]c2ccccc12)C(=O)NCC(=O)O [compound 125] (H-KWILISFWG-OH) | 22.5 to 30 | 113 | 0.7 | 0.4 to 1
CC[C@H](C)[C@H](NC(=O)[C@H](CC(C)C)NC(=O)[C@H](Cc1ccccc1)NC(=O)[C@H](Cc1c[nH]c2ccccc12)NC(=O)[C@@H](N)CCSC)C(=O)N[C@@H](CO)C(=O)N[C@@H](Cc1ccccc1)C(=O)N[C@@H](Cc1c[nH]c2ccccc12)C(=O)NCC(N)=O [compound 108] (H-MWFLISFWG-NH2) | 7.5 to 15 | 102 | 0.7 | 0.4 to 1
CC[C@H](C)[C@H](NC(=O)[C@H](CC(C)C)NC(=O)[C@H](Cc1ccccc1)NC(=O)[C@H](Cc1c[nH]c2ccccc12)NC(=O)[C@H](CCSC)NC(=O)[C@H](CCCNC(=N)N)NC(=O)[C@H](CO)NC(=O)[C@@H](N)CCSC)C(=O)N[C@@H](CS)C(=O)N[C@@H](Cc1ccccc1)C(=O)N[C@@H](Cc1c[nH]c2ccccc12)C(=O)NCC(=O)O [compound 46] (H-MSRMWFLICFWG-OH) | < 7.5 | 101 |  | 
CC[C@H](C)[C@H](NC(=O)[C@H](CC(C)C)NC(=O)[C@H](Cc1ccccc1)NC(=O)[C@H](Cc1c[nH]c2ccccc12)NC(=O)[C@H](CCSC)NC(=O)[C@H](CCCNC(=N)N)NC(=O)[C@H](CO)NC(=O)[C@@H](N)CCSC)C(=O)N[C@@H](CO)C(=O)N[C@@H](Cc1ccccc1)C(=O)N[C@@H](Cc1c[nH]c2ccccc12)C(=O)N[C@H](C(=O)NCC(=O)O)[C@@H](C)O [compound 44] (H-MSRMWFLISFWTG-OH) | 15 to 22.5 | 102 |  | 
CC[C@H](C)[C@@H]1NC(=O)[C@H](CC(C)C)NC(=O)[C@H](Cc2ccc(O)cc2)NC(=O)[C@H](Cc2c[nH]c3ccccc23)NC(=O)[C@H](CCSC)NC(=O)[C@H](CCCNC(=N)N)NC(=O)[C@H](CO)NC(=O)[C@H](CCSC)NC(=O)[C@@H](N)CCCCNC(=O)[C@H](Cc2c[nH]c3ccccc23)NC(=O)[C@H](Cc2ccccc2)NC(=O)[C@H](CO)NC1=O [compound 31] (HELM PEPTIDE1{K.M.S.R.M.W.Y.L.I.S.F.W}$PEPTIDE1,PEPTIDE1,1:R3-12:R2$$$V2.0; bridges inferred) | > 30 | 89 |  | 
CC[C@H](C)[C@H](NC(=O)[C@H](CC(C)C)NC(=O)[C@H](Cc1ccccc1)NC(=O)[C@H](Cc1c[nH]c2ccccc12)NC(=O)[C@@H](N)CCSC)C(=O)N[C@@H](CS)C(=O)N[C@@H](Cc1ccccc1)C(=O)N[C@@H](Cc1c[nH]c2ccccc12)C(=O)N(C)CC(=O)O [compound 213] (HELM PEPTIDE1{M.W.F.L.I.C.F.W.[Sar]}$$$$V2.0) |  | 112 |  | 1 to 10
CC[C@H](C)[C@H](NC(=O)[C@H](CC(C)C)NC(=O)[C@@H](NC(=O)[C@H](Cc1c[nH]c2ccccc12)NC(=O)[C@H](CCSC)NC(C)=O)[C@@H](C)CC)C(=O)N[C@@H](CO)C(=O)N[C@@H](Cc1ccccc1)C(=O)N[C@@H](Cc1c[nH]c2ccccc12)C(=O)N(C)CC(=O)O [compound 221] (HELM PEPTIDE1{[ac].M.W.I.L.I.S.F.W.[Sar]}$$$$V2.0) |  | 101 |  | < 0.4
CC[C@H](C)[C@H](NC(=O)[C@H](CC(C)C)NC(=O)[C@@H](NC(=O)[C@H](Cc1c[nH]c2ccccc12)NC(=O)[C@H](CCSC)NC(=O)[C@H](CCCNC(=N)N)NC(=O)[C@H](CO)NC(=O)[C@@H](N)CCSC)[C@@H](C)CC)C(=O)N[C@@H](CO)C(=O)N[C@@H](Cc1ccccc1)C(=O)N[C@@H](Cc1c[nH]c2ccccc12)C(=O)NCC(=O)O [compound 51] (H-MSRMWILISFWG-OH) | 7.5 to 15 | 98.5 |  | 
CC[C@H](C)[C@H](NC(=O)[C@@H](NC(=O)[C@H](CCC(N)=O)NC(=O)[C@@H]1CCCN1C(=O)[C@H](CC(=O)O)NC(=O)[C@H](CCC(=O)O)NC(=O)[C@H](CCC(=O)O)NC(=O)CCNC(C)=O)[C@@H](C)O)C(=O)N[C@@H](CC(C)C)C(=O)N[C@@H](CC(=O)O)C(=O)N[C@@H](CC(=O)O)C(=O)N[C@@H](Cc1c[nH]cn1)C(=O)N[C@@H](CC(C)C)C(=O)N[C@@H](CO)C(=O)N[C@@H](CCCNC(=N)N)C(=O)N[C@H](C(=O)N[C@@H](CC(C)C)C(=O)N[C@@H](CCCCN)C(N)=O)C(C)C [compound 412] (HELM PEPTIDE1{[ac].[bAla].E.E.D.P.Q.T.I.L.D.D.H.L.S.R.V.L.K.[am]}$$$$V2.0) | > 30 |  | 0.7 | 1 to 10
CC[C@H](C)[C@@H]1NC(=O)[C@@H](NC(=O)[C@H](CCC(N)=O)NC(=O)[C@H](C)N(C)C(=O)[C@H](Cc2c[nH]c3ccccc23)NC(C)=O)CCCCNC(=O)CC[C@@H](C(=O)N[C@@H](Cc2c[nH]cn2)C(=O)N[C@H](C(=O)N[C@@H](CCC(N)=O)C(=O)N[C@@H](CCCNC(=N)N)C(=O)N[C@H](C(=O)N[C@@H](Cc2c[nH]c3ccccc23)C(=O)NCC(N)=O)C(C)C)C2CCCCC2)NC(=O)[C@H](CC(N)=O)NC(=O)[C@H](CC(C)C)NC1=O [compound 435] (HELM PEPTIDE1{[ac].W.[meA].Q.K.I.L.N.E.H.[O=C([C@@H](N[*:1])C1CCCCC1)[*:2]].Q.R.V.W.G.[am]}$PEPTIDE1,PEPTIDE1,5:R3-9:R3$$$V2.0) | > 30 |  | 0.7 | < 0.4
CC[C@H](C)[C@@H]1NC(=O)[C@@H](NC(=O)[C@H](CCC(N)=O)NC(=O)C(C)(C)NC(=O)[C@H](Cc2c[nH]c3ccccc23)NC(C)=O)CCCCNC(=O)CC[C@@H](C(=O)N[C@@H](Cc2c[nH]cn2)C(=O)N[C@H](C(=O)N[C@@H](CCC(N)=O)C(=O)N[C@@H](CCCNC(=N)N)C(=O)N[C@H](C(=O)N[C@@H](Cc2c[nH]c3ccccc23)C(=O)NCC(N)=O)C(C)C)C2CCCCC2)NC(=O)[C@H](CC(=O)O)NC(=O)[C@H](CC(C)C)NC1=O [compound 443] (HELM PEPTIDE1{[ac].W.[Aib].Q.K.I.L.D.E.H.[O=C([C@@H](N[*:1])C1CCCCC1)[*:2]].Q.R.V.W.G.[am]}$PEPTIDE1,PEPTIDE1,5:R3-9:R3$$$V2.0) | 7.5 to 15 |  | 0.86 | < 0.4

— patent publication US12441768B2, “Compositions and methods for treating endometriosis” (EndoMet Biosciences, Inc., priority 2018, dated 2025)
